The supplement of paper PMC9938120

Tests used:
Test in all cases: drug sensitivity score (DSS3, normalised partial AUC of % inhibition dose-response) (DSS (score)); higher = more sensitive (stronger inhibition of viability); extreme values may be limits of the assay
Settings in all cases: 72 h; library: FO5A; assay format: 2D, 384-well, CellTiter-Glo
FMOC28 = tested on: FMOC28 (patient-derived low-grade serous ovarian cancer cells)
Procedure, shortened: (§1)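 Cells were dispensed onto 384-well flat clear-bottom plates already holding compounds at five concentrations over a 10,000-fold range, using patient-derived ovarian cancer cells at passage under 10. Incubation lasted 72 h at 37 °C in 5% CO2, after which CellTiter-Glo viability data were processed in Breeze. Higher drug sensitivity scores, each a partial area under the percent-inhibition dose-response curve divided by the log of the upper asymptote, mean more sensitive cells.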

FMOC14 = tested on: FMOC14 (patient-derived high-grade serous ovarian cancer cells)
Procedure, shortened: as §1

FMOC24 = tested on: FMOC24 (patient-derived high-grade serous ovarian cancer cells)
Procedure, shortened: as §1

FMOC22 = tested on: FMOC22 (patient-derived mucinous ovarian cancer cells)
Procedure, shortened: as §1

FMOC03 = tested on: FMOC03 (patient-derived mucinous ovarian cancer cells)
Procedure, shortened: as §1

FMOC02_2 = tested on: FMOC02_2 (patient-derived low-grade serous ovarian cancer cells)
Procedure, shortened: as §1

FMOC02_3 = tested on: FMOC02_3 (patient-derived low-grade serous ovarian cancer cells)
Procedure, shortened: as §1

FMOC06 = tested on: FMOC06 (patient-derived mucinous ovarian cancer cells)
Procedure, shortened: as §1

FMOC04 = tested on: FMOC04 (patient-derived high-grade serous ovarian cancer cells)
Procedure, shortened: as §1

FMOC25_2 = tested on: FMOC25_2 (patient-derived low-grade serous ovarian cancer cells)
Procedure, shortened: as §1

FMOC17 = tested on: FMOC17 (patient-derived low-grade serous ovarian cancer cells)
Procedure, shortened: as §1

FMOC09 = tested on: FMOC09 (patient-derived high-grade serous ovarian cancer cells)
Procedure, shortened: as §1

FMOC11 = tested on: FMOC11 (patient-derived high-grade serous ovarian cancer cells)
Procedure, shortened: as §1

FMOC27 = tested on: FMOC27 (patient-derived low-grade serous ovarian cancer cells)
Procedure, shortened: as §1

FMOC02_1 = tested on: FMOC02_1 (patient-derived low-grade serous ovarian cancer cells)
Procedure, shortened: as §1

Row | SMILES | drug sensitivity score (FMOC28) | drug sensitivity score (FMOC14) | drug sensitivity score (FMOC24) | drug sensitivity score (FMOC22) | drug sensitivity score (FMOC03) | drug sensitivity score (FMOC02_2) | drug sensitivity score (FMOC02_3) | drug sensitivity score (FMOC06) | drug sensitivity score (FMOC04) | drug sensitivity score (FMOC25_2) | drug sensitivity score (FMOC17) | drug sensitivity score (FMOC09) | drug sensitivity score (FMOC11) | drug sensitivity score (FMOC27) | drug sensitivity score (FMOC02_1)
1 | CCc1nc(C(N)=O)c(Nc2ccc(N3CCC(N4CCN(C)CC4)CC3)c(OC)c2)nc1NC1CCOCC1 [Gilteritinib] | 0.5 | 0 | 0.1 | 0.1 | 0.1 | 3.2 | 4.5 | 4.5 | 1.1 | 4.4 | 1.7 | 1.7 | 1.9 | 0 | 4.2
2 | COCCNCc1ccc(-c2cc3nccc(Oc4ccc(NC(=S)NC(=O)Cc5ccc(F)cc5)cc4F)c3s2)nc1 [Glesatinib] | 2.9 | 0.2 | 0.6 | 0 | 0 | 0 | 0 | 0 | 0 | 0 | 0 | 0 | 0 | 0 | 0
3 | CCN1CCN(c2ccc(Nc3cc(N(C)C(=O)Nc4c(Cl)c(OC)cc(OC)c4Cl)ncn3)cc2)CC1 [Infigratinib] | 0.5 | 0 | 0.05 | 0 | 0 | 0 | 0 | 0 | 0 | 0 | 0 | 0 | 0 | 0 | 0
4 | N#Cc1ccnc(N2C(=O)CC[C@H]2C(=O)N(c2cncc(F)c2)[C@H](C(=O)NC2CC(F)(F)C2)c2ccccc2Cl)c1 [Ivosidenib] | 2.6 | 0 | 0.2 | 0 | 0 | 0 | 0 | 0 | 0 | 0 | 0.3 | 0 | 0 | 0 | 0.2
5 | Nc1cc(COc2c(Cl)cc(C[C@H](N)C(=O)O)cc2Cl)c2oc(-c3ccccc3)nc2c1 [JPH203] | 0 | 0 | 0 | 0 | 0 | 0 | 0 | 0.4 | 0 | 0 | 0 | 0 | 0 | 0 | 0
6 | CC(C)NC(=O)COc1cccc(-c2nc(Nc3ccc4[nH]ncc4c3)c3ccccc3n2)c1 [KD025] | 2.4 | 2.7 | 10.4 | 0 | 0 | 1.6 | 6.2 | 1.1 | 3.55 | 4.4 | 4.5 | 0.2 | 1.6 | 0 | 5.4
7 | O=C(Nc1cnn2ccc(N3CCC[C@@H]3c3cc(F)ccc3F)nc12)N1CC[C@H](O)C1 [Larotrectinib] | 0 | 0 | 0 | 0 | 0 | 0 | 0 | 0 | 0 | 0 | 0 | 0 | 0 | 0 | 0
8 | O=C(CCNC(=O)c1ccc(OC(F)(F)F)cc1)N[C@@H]1CCCc2ccccc21 [ML390] | 2.2 | 0 | 0.8 | 4.8 | 4.6 | 3 | 4.2 | 0.3 | 2.9 | 6 | 2 | 0 | 3.6 | 3.4 | 5.3
9 | CCCN(CCC)C(=O)C1=Cc2ccc(-c3ccc(C(=O)N4CCCC4)cc3)cc2N=C(N)C1 [Motolimod] | 2.5 | 0 | 0 | 0 | 0 | 0 | 1.6 | 0.3 | 0 | 0.1 | 0 | 0 | 0 | 0.4 | 0
10 | Cc1ccc(C(=O)Nc2cccc(C(F)(F)F)c2)cc1Nc1nc(-c2cccnc2)nc2c1cnn2C [NVP-BHG712] | 4.8 | 3.3 | 7.9 | 3.4 | 5.2 | 3 | 3.3 | 7.3 | 0 | 0 | 4.6 | 3 | 4.7 | 1.6 | 6.2
11 | CN1C(=O)N[C@H](Cc2c[nH]c3c(Cl)cccc23)C1=O [Necrostatin 2] | 2.5 | 0 | 0 | 0 | 0 | 0 | 0 | 0 | 0 | 0.3 | 0.7 | 0 | 0 | 0 | 0
12 | O=c1ncn2nc(Sc3ccc(F)cc3F)ccc2c1-c1c(Cl)cccc1Cl [Neflamapimod] | 1.1 | 0 | 0.05 | 0 | 0 | 0 | 0 | 0.3 | 0 | 0 | 0 | 1.1 | 1 | 0.1 | 0
13 | CC(O)c1cc(C(=O)N[C@@H](C)Cn2ccc(-c3ccc(C#N)c(Cl)c3)n2)n[nH]1 (stereo not given in full) [ODM-201] | 0 | 0 | 0 | 0 | 0.4 | 0 | 0 | 0.7 | 0 | 0.5 | 0 | 0.9 | 0 | 0 | 0
14 | C=CC(=O)Nc1cccc(Oc2nc(Nc3ccc(N4CCN(C)CC4)cc3)nc3ccsc23)c1 [Olmutinib] | 1.7 | 0 | 0 | 0 | 0.8 | 2.1 | 2.3 | 0.2 | 0.05 | 1.5 | 2.6 | 3.5 | 0.4 | 2.4 | 2.3
15 | Cc1ccc(=O)n(-c2ccccc2)c1 [Pirfenidone] | 0 | 0 | 0 | 0 | 0 | 0 | 0 | 0 | 0 | 0 | 0.6 | 0 | 0.1 | 0 | 0
16 | COC(=O)c1ccc([C@H]2c3[nH]c4ccccc4c3C[C@H](C(=O)OC)N2C(=O)CCl)cc1 [RSL3] | 0 | 0 | 0 | 0 | 0 | 0 | 0 | 0 | 0 | 0 | 0 | 0 | 0 | 0 | 0
17 | Cc1cn(-c2cc(NC(=O)c3ccc(C)c(Nc4nccc(-c5cnccn5)n4)c3)cc(C(F)(F)F)c2)cn1 [Radotinib] | 1.6 | 0 | 1 | 0 | 0 | 0 | 0 | 2.4 | 0 | 0.2 | 0 | 0 | 0 | 0 | 0
18 | CCOC(=O)C1=CCCC[C@H]1S(=O)(=O)Nc1ccc(F)cc1Cl [Resatorvid] | 0 | 0 | 0 | 0 | 0 | 0 | 0 | 0.1 | 0 | 0 | 0 | 0 | 0 | 0 | 0
19 | CCOCc1nc2c(N)nc3ccccc3c2n1CC(C)(C)O [Resiquimod] | 0 | 0 | 1.5 | 0 | 0 | 0 | 0 | 0.6 | 0 | 0 | 0 | 0.2 | 0 | 0 | 0
20 | C[C@H]1CNCCCN1S(=O)(=O)c1cccc2cncc(F)c12 [Ripasudil] | 0 | 0 | 0 | 0 | 0 | 0 | 0 | 0 | 0 | 0 | 0 | 0 | 0 | 0 | 0
21 | Cc1nc(C(=O)NCC(=O)O)c(O)c2ccc(Oc3ccccc3)cc12 [Roxadustat] | 0 | 0 | 3.3 | 0 | 0 | 0 | 0 | 0 | 0 | 0 | 0 | 0 | 0 | 0.2 | 0
22 | CC1=C2C[C@H]3[C@@H](CC[C@@H]4C[C@H](NS(C)(=O)=O)CC[C@@]43C)[C@@H]2CC[C@@]2(C1)O[C@@H]1C[C@H](C)CN[C@H]1[C@H]2C [Saridegib] | 2.2 | 0 | 0.3 | 0 | 0 | 2.2 | 0 | 0 | 0 | 0 | 4.1 | 0 | 0 | 0 | 0
23 | Cc1cc(F)c(C(=O)Nc2cccc(-c3nncn3C(C)C)n2)cc1-n1cnc(C2CC2)c1 [Selonsertib] | 0 | 0 | 0.6 | 0 | 0 | 0 | 0 | 0 | 0 | 0 | 1.5 | 0 | 0 | 0 | 0
24 | CN1CCN(C(=O)c2ccc3cc(CCNc4ncnc5ccc(C#N)cc45)ccc3c2)CC1 [Senexin B] | 0 | 0 | 0.2 | 0 | 1.5 | 1.3 | 2.9 | 1 | 0 | 1.2 | 0.6 | 0 | 0 | 0 | 0.6
25 | COCC[n+]1c2c(n(Cc3cnccn3)c1C)C(=O)c1ccccc1C2=O [Sepantronium bromide] | 43 | 42.6 | 33.5 | 33.2 | 39 | 30.6 | 36.1 | 32.9 | 38.1 | 41.4 | 36.9 | 43.7 | 37.8 | 30.9 | 38.4
